# Assay results taken from ChEMBL document CHEMBL2203139, “Synthetic bicyclic iminosugar derivatives fused thiazolidin-4-one as new potential HIV-RT inhibitors” (Bioorg Med Chem Lett, 2012).
# pIC50: −log10 of the molar value.
# Target: Human immunodeficiency virus type 1 reverse transcriptase (Human immunodeficiency virus 1, UniProt Q72547)
# Assay: Inhibition of HIV1 reverse transcriptase incubated for 1 hr by colorimetric assay
row,SMILES,pIC50
1,O=C1CS[C@H]2[C@H](O)[C@H](O)[C@H](O)CN12,4.89
2,O=C1CS[C@@H]2[C@H](O)[C@H](O)[C@H](O)CN12,4.72
3,O=C1S[C@H]2[C@H](O)[C@H](O)[C@H](O)CN2C1=O,5.37
4,O=C1C[S+]([O-])[C@H]2[C@H](O)[C@H](O)[C@H](O)CN12 (some centres not stated),4.99
5,O=C1C(O)S[C@H]2[C@H](O)[C@H](O)[C@H](O)CN12 (some centres not stated),5.76
6,O=C1S[C@@H]2[C@H](O)[C@H](O)[C@H](O)CN2C1=O,5.28
7,O=C1C[S+]([O-])[C@@H]2[C@H](O)[C@H](O)[C@H](O)CN12 (some centres not stated),5.61
